PubChem BioAssay (NCI)
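Cells were grown in 96-well plates and exposed to each compound for 48 hours at five concentrations; endpoints were interpolated linearly between bracketing concentrations, or set to the highest concentration if not reached. GI50 is the concentration that inhibits growth by half. TGI: concentration producing complete growth inhibition.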

Experiments:
Assay in all cases: NCI-60 cell line screen, 48 h
DU-145 prostate = system: DU-145 prostate
HCC-2998 colon = system: HCC-2998 colon
HT29 colon = system: HT29 colon
K-562 leukemia = system: K-562 leukemia
MCF7 breast = system: MCF7 breast
NCI-H23 lung = system: NCI-H23 lung
PC-3 prostate = system: PC-3 prostate
SK-MEL-28 melanoma = system: SK-MEL-28 melanoma
A498 renal = system: A498 renal
HS 578T breast = system: HS 578T breast
NCI-H460 lung = system: NCI-H460 lung

Row | Structure (SMILES) | TGI (DU-145 prostate) | TGI (HCC-2998 colon) | TGI (HT29 colon) | TGI (K-562 leukemia) | TGI (MCF7 breast) | TGI (NCI-H23 lung) | TGI (PC-3 prostate) | TGI (SK-MEL-28 melanoma) | TGI (A498 renal) | TGI (HS 578T breast) | TGI (NCI-H460 lung) | GI50 (HS 578T breast) | GI50 (NCI-H23 lung) | GI50 (NCI-H460 lung) | GI50 (PC-3 prostate)
1 | CCSc1[nH]c(NC(=NC(C)C)NC(=O)c2ccccc2)c(C(N)=O)c1C(N)=O | > 10 µM | > 10 µM | > 10 µM | > 10 µM | > 10 µM | > 10 µM | > 10 µM | > 10 µM | – | – | – | – | – | – | –
2 | O=P(Nc1cccc(Cl)c1)(Oc1ccccc1)N(CCCl)CCCl (stereo not drawn) | – | 28.6 µM | 28.4 µM | > 100 µM | – | 31.8 µM | – | 30.5 µM | 27.6 µM | – | – | – | – | – | –
3 | COc1ccccc1[C@@H]1CCC2CC[C@@H](c3ccccc3OC)[N+]21Cc1ccccc1 (stereo partly drawn) | 13.7 µM | – | 10.1 µM | 12.7 µM | 12.2 µM | 6.63 µM | 7.94 µM | 22.3 µM | 7.66 µM | 35.8 µM | – | – | – | – | –
4 | COc1ccc2nc3c([N+](=O)[O-])ccc(NCCCN(C)C)c3c(N)c2c1 | 3.05 µM | – | 2.31 µM | 1.41 µM | 2.5 µM | 3.95 µM | 2.73 µM | 3.04 µM | – | 4.79 µM | 2.59 µM | – | – | – | –
5 | CC(C)(/C=N/O)/[N+]([O-])=C/c1ccccc1 | > 100 µM | > 100 µM | > 100 µM | – | > 100 µM | > 100 µM | > 100 µM | > 100 µM | – | > 100 µM | > 100 µM | – | – | – | –
6 | C[C@]12CCC(=O)C=C1CC[C@@H]1C2CC[C@@]2(C)C1CC[C@@H]2OC(=O)C12OC1CCC2=O (stereo partly drawn) | – | 59 µM | 33.4 µM | 59.4 µM | – | 33.6 µM | – | 31.6 µM | 35.6 µM | – | 31.8 µM | – | – | – | –
7 | COc1ccc(N2C(=O)C(=O)C3(CCCCC3)C2=O)c(OC)c1OC | > 100 µM | – | > 100 µM | – | > 100 µM | > 100 µM | > 100 µM | > 100 µM | – | > 100 µM | – | – | – | – | –
8 | COC(=O)C1Cc2c([nH]c3ccccc23)-c2[nH]c3ccccc3c2CC(NC(C)=O)C(=O)N2CCCC2C(=O)N1 (stereo not drawn) | > 100 µM | > 100 µM | > 100 µM | > 100 µM | > 100 µM | > 100 µM | > 100 µM | > 100 µM | – | > 100 µM | > 100 µM | – | – | – | –
9 | O=C1C=CC(=O)[C@H]2C3C=CC(C4C3C3(Cl)C(Cl)=C(Cl)[C@]4(Cl)C3(Cl)Cl)[C@@H]12 (stereo partly drawn) | 21.3 µM | – | 12.2 µM | 20.4 µM | 13.4 µM | 25.7 µM | 16.4 µM | 18.6 µM | 31.7 µM | 31.2 µM | 15.9 µM | – | – | – | –
10 | COc1ccc(Oc2nc3c(N)cc(C(F)(F)F)cc3nc2-c2ccccc2)cc1 | – | > 100 µM | 22.8 µM | > 100 µM | 23.8 µM | > 100 µM | 59.6 µM | > 100 µM | 55.6 µM | 43 µM | 57.8 µM | – | – | – | –
11 | CCC1OC2C(CC=C(C)C)=C3OC(C)(O)C(C)(CC)C(=O)C3=C3OC(=O)C=C1C32 (stereo not drawn) | > 100 µM | > 100 µM | – | 86.8 µM | > 100 µM | 70.7 µM | > 100 µM | > 100 µM | > 100 µM | – | 92.5 µM | – | – | – | –
12 | COc1c(C)c(C/C=C(\C)CCCCO)c(OC)c2ccccc12 | > 100 µM | 62.5 µM | 43.7 µM | 67.1 µM | > 100 µM | 94.2 µM | > 100 µM | – | – | > 100 µM | 37.8 µM | – | – | – | –
13 | CCOC(=O)C(NC(=O)c1ccccc1)(Nc1ccc(S(=O)(=O)Nc2ccc(OC)nn2)cc1)C(F)(F)F (stereo not drawn) | > 100 µM | > 100 µM | > 100 µM | > 100 µM | > 100 µM | > 100 µM | > 100 µM | > 100 µM | – | > 100 µM | > 100 µM | – | – | – | –
14 | COC(=O)CC1NC(=O)C1C(C)(OC)OC (stereo not drawn) | – | > 100 µM | > 100 µM | > 100 µM | – | > 100 µM | – | > 100 µM | > 100 µM | – | > 100 µM | – | – | – | –
15 | O=C(c1cccnc1)N1N=C(c2ccc3c(c2)OCO3)CC1(O)c1cc(F)c(Cl)cc1Cl (stereo not drawn) | 59.8 µM | – | 35.9 µM | > 100 µM | – | > 100 µM | > 100 µM | 77.5 µM | – | > 100 µM | 36.9 µM | – | – | – | –
16 | CCOC(=O)CCC(C(=O)OCC)n1nnc2ccc(Nc3c(C)[n+]([O-])c4cc(F)c(OCC)cc4[n+]3[O-])cc21 (stereo not drawn) | > 100 µM | – | > 100 µM | > 100 µM | 68.6 µM | > 100 µM | > 100 µM | – | > 100 µM | > 100 µM | > 100 µM | – | – | – | –
17 | COC(=O)C1CCCN1C(=O)OC(C)(C)C (stereo not drawn) | > 100 µM | > 100 µM | > 100 µM | > 100 µM | > 100 µM | > 100 µM | > 100 µM | > 100 µM | – | – | > 100 µM | – | – | – | –
18 | CN(C)C1(c2cc3ccccc3s2)CCCCC1 | > 100 µM | 57 µM | > 100 µM | 65.8 µM | > 100 µM | > 100 µM | > 100 µM | – | > 100 µM | – | > 100 µM | – | – | – | –
19 | CCOC(=O)C1=C(O)c2ccc(OC)cc2C(=O)C1=O | – | > 100 µM | > 100 µM | > 100 µM | – | > 100 µM | – | > 100 µM | > 100 µM | – | > 100 µM | – | – | – | –
20 | COC(=O)[C@@H](NC(=O)c1ccc(CNC(=O)/C(C)=C/c2ccccc2)cc1)C(C)C | > 100 µM | 79.9 µM | > 100 µM | > 100 µM | > 100 µM | > 100 µM | > 100 µM | > 100 µM | > 100 µM | – | > 100 µM | – | – | – | –
21 | NNC(=S)NN/C=C(\C=Nc1ccccc1)[N+](=O)[O-] | – | > 100 µM | > 100 µM | – | – | > 100 µM | – | > 100 µM | – | – | – | – | – | – | –
22 | Nc1nc(N)c2nc(CNc3ccc(C(=O)NC(CCNC(=O)c4ccccc4C(=O)O)C(=O)O)cc3)cnc2n1 (stereo not drawn) | > 100 µM | – | > 100 µM | > 100 µM | > 100 µM | > 100 µM | > 100 µM | > 100 µM | > 100 µM | > 100 µM | > 100 µM | 0.49 µM | 0.0324 µM | 0.0144 µM | 0.00666 µM
23 | CN(C)CCNC(=O)c1cccc2[nH]c(-c3ccc(Cl)cc3)nc12 | – | 16.9 µM | 16.6 µM | 12.6 µM | 15.8 µM | 21.5 µM | – | 31.9 µM | 24 µM | – | 13.2 µM | – | – | – | –
